Data published in patent US20200325183A1, “NS2B AS MARKER FOR ZIKA VIRUS INFECTIONS” (priority 2017, published 2020).
Ends that are not written are not given here.

Key:
Format in all cases: binding, human
[1] = tested on: IgM antibodies in Zika acute and convalescent plasma samples; experiment: Full substitution scan peptide microarray, IgM; conditions: data not shown
Source text: In a second screening round of the second study, microarrays with peptide substitution scans of linear WT peptide […] (SEQ ID NO. 9) and cyclic WT peptide KDAEVTGNS (SEQ ID NO. 10) were used to determine essential, conserved and less-conserved/variable amino acid positions and to identify stronger responding peptide variants. Each amino acid position in the WT sequence was systematically exchanged by all 20 physiologic amino acids, and the resulting linear and cyclic peptides and peptide variants were printed in triplicate on the peptide substitution scan microarrays. The immunoreactivity of the peptide variants was tested by incubation with Zika acute and convalescent plasma samples. The assays were carried out in a multiplexed format with fluorescently labeled secondary anti-human IgG and anti-human IgM antibodies to simultaneously analyze the IgG and IgM profiles of each sample.
A substitution analysis was performed with the WT peptide […] (SEQ ID No. 9) and cyclic peptide KDAEVTGNS (SEQ ID NO. 10) to determine essential, conserved and less-conserved/variable amino acid positions and to identify stronger reacting peptide variants.
Each amino acid position in the WT sequence was systematically exchanged by all 20 physiologic amino acids, and the resulting peptides and peptide variants were printed in triplicate on peptide microarrays. […]

[2] = tested on: IgG antibodies in sera of Zika patients; experiment: Peptide microarray IgG screening, first study (ZIKV proteome / NS1, NS2a, NS2b arrays)
Source text: In a first study, the inventors characterized the antibody profiles of Zika patients in a systematic manner. Therefore, they translated the proteomes of 15 different ZIKV strains (taken from the NCBI database, see Table 1 below) in the form of overlapping peptides as high-density peptide arrays and used 84 different patient and control sera to screen several thousands of potential antigens for pathogen induced antibodies.
In addition, the inventors investigated the time-dependent antibody variation in patients (acute vs. convalescent stage). They screened patient sera from their collaboration partner in Brazil with different peptide arrays, containing the whole proteome of the ZIKV (first screening round). […] Almost no signals could be observed in control samples. […]
In the first study, sera were diluted 1:1000 in PBS buffer with 0.05% Tween 20 pH 7.4 (PBST) and 10% blocking buffer, incubating the sera for 16 h at 4° C. and 50 RPM orbital shaking. […] Image analysis and quantification was performed with the PepSlide Analyzer software (Sicasys Software GmbH, Heidelberg, Germany).
Samples used for the peptide array experiments of the first study were collected from individuals with acute febrile illnesses enrolled in a prospective cohort study from May 2015 to April 2016. […] For molecular viral diagnosis, quantitative real-time PCR (qRT-PCR) for Dengue (DENV) and Zika (ZIKV) viruses was performed. […]

[3] = tested on: IgG antibodies in plasma of Zika virus patients; experiment: Proteome-wide Zika virus peptide microarray, second study, IgG; conditions: plasma 1:250, acute and convalescent samples
Source text: (§1) In a second more extended study, the inventors further characterized the IgG and IgM antibody profiles of Zika patients in a more comprehensive manner Therefore, they translated the proteomes of 19 Zika virus strains taken from sequencing data from Nicaragua, Colombia, Guatemala, Honduras, Mexico and Panama 100 additional Zika virus proteomes from the USA with a higher sequence heterogeneity into 4,356 different overlapping Zika virus peptides printed in duplicate on high-density peptide arrays for a high-resolution proteome-wide epitope screening.
(§2) The inventors used plasma of 100 Zika virus patients with a confirmed dengue virus naïve status in the acute and convalescent phase (200 samples), plasma of 50 Zika virus patients with a confirmed dengue virus positive status in the acute and convalescent phase (100 samples), 50 plasma samples of dengue virus patients in the convalescent phase taken before the Zika virus outbreak as disease control and plasma of 25 individuals with a confirmed dengue virus and Zika virus negative status as healthy controls. […] The multiplexed IgG and IgM analysis was enabled by highly specific fluorescently labeled anti-human IgG and anti-human IgM secondary antibodies with different fluorescence wavelengths for emission and detection. […]

[4] = tested on: IgM antibodies in plasma of Zika virus patients; experiment: Proteome-wide Zika virus peptide microarray, second study, IgM; conditions: plasma 1:250, acute and convalescent samples
Source text: as §1, §2

[5] = tested on: IgG antibodies in sera of Zika acute and Zika convalescent patients; experiment: Chemiluminescence peptide ELISA; conditions: serum dilution 1:1000, Zika acute and convalescent patient sera
Method: The cyclic peptides and WT peptide were tested by a chemiluminescence ELISA using sera of Zika acute and Zika convalescent patients. A healthy control (HC) sera was included. The ELISA assays were performed under stringent conditions, that is at high serum dilutions (1:1000) to better evaluate the diagnostic potential of the peptide marker. The ELISA results are given in chemiluminescence units (CLUs). Samples were considered as positive, if the CLU of a respective sera is >=2 times over HC value.
For ELISA tests, four cyclic peptides with a Biotin tag preceding the C-terminal cysteine residue were synthesized. The non-cyclic WT peptide (“WT peptide”) was synthesized with a C-terminal Biotin tag at the C-terminus, the amino acid sequence was identical to SEQ ID NO. 9.
Peptide ELISA-Tests were performed on Streptavidin functionalized 96 well microtiterplates (Lumitrac, Greiner BioOne, Germany). The plates were coated with the respective biotinylated peptides with a biotin tag positioned at the C-terminus, preceding the C-terminal cysteine. The plates were incubated overnight at 4° C. with test sera at a dilution of 1:1000 (v/v) in PBST/10% Rockland (PBST=Phosphate buffered saline pH 7.2, 0.05% Tween 20). […] The chemiluminescence was measured after 10 minutes at 425 nm using an automated plate reader (CLARIOstar®. BMG LABTECH GmbH, Germany). […]

Substance	IgM reactivity in substitution scan [1]	IgG antibody reactivity of Zika patients against the whole ZIKV proteome ([2]; first screening round, arrays with whole proteome content, sera 1:1000)	IgG antibody reactivity, specific arrays with NS1, NS2a, NS2b content ([2]; second screening round)	IgG response, proteome-wide microarray [3]	IgM response, proteome-wide microarray [4]	IgG reactivity in chemiluminescence ELISA (positive if CLU >=2 times over HC value) [5]
KDAEVTGNS (also: cyclic) [SEQ ID NO. 10, cyclic WT peptide on substitution scan microarrays]	not a single human sample exhibited any specific IgM reactivity	–	–	–	–	–
NS2b: Zika virus non-structural protein NS2b, cofactor of NS3 protease, displayed as overlapping 15-mer peptides on arrays	–	most prominent interaction	clear signals	specific IgG responses	no specific IgM response	–
WEKDAEVTGNSPRLD [WT peptide]	not a single human sample exhibited any specific IgM reactivity	–	–	–	–	detected Zika specific antibody responses in acute patient sera as well as in convalescent patient sera
